According to patent publication US20250177366A1, “COMPOSITIONS AND METHODS FOR ALLEVIATING PAIN AND REDUCING ADVERSIVENESS OF STIMULI” (UNIVERSITY OF WASHINGTON, priority 2021, published 2025):

Experiments:
larval zebrafish = experiment: Thermal preference assay (28.5° C. vs 37.5° C.), non-sensitized; assay type: in vivo, Zebrafish (Danio rerio)
Description: Thermal preference assay. […] Once an entire plate was loaded with fish, the appropriate incubation solution was added. […] Following incubation in all experiments, the choice testing plate was transported to a dual solid-state heat/cool plate (AHP-1200° C. P; Teca) and centered such that half of each arena was positioned over each side of the heat/cool plate. […] Locomotor behavior was recorded using a Canon high-definition video camcorder suspended at a fixed position above the choice testing plate. Each trial was four minutes in duration.
For single-incubation assays (e.g. testing single chemicals), larval zebrafish were caught in 100 μL E2 media and 100 μL of the control (2% DMSO) or test chemical at 2× concentration was added to each well to achieve the final desired concentration. […] The final DMSO concentration in all solutions was 1%.

[1] = test system: neuronal activity marker phosphorylated-ERK (pERK); experiment: Whole brain activity profiling, pERK/tERK immunolabeling and MAP-mapping; assay type: in vivo, Zebrafish (Danio rerio)
Description: To investigate how AS1 might alter central nervous system activity in the presence of nociceptive stimuli, whole brain activity profiling with the neuronal activity marker phosphorylated-ERK (pERK) was performed. Briefly, 6 dpf larval zebrafish were exposed to noxious heat (37.5° C.) or rearing temperature (28.5° C.) in the presence of vehicle or AS1 (either 2.5 or 5 μM) for 15 minutes. Immunolabeling was then performed to detect both total ERK (tERK) and phosphorylated ERK (pERK) (FIG. 8). Volumetric z-stacks of the entire brain of each fish were taken upon a confocal microscope, registered to a reference brain, and smoothed using an ImageJ script. […] Brains from each experimental condition (AS1+28.5° C., Vehicle+37.5° C., and AS1+37.5° C.) with Vehicle+28.5° C. were initially compared to determine how activity under these experimental conditions differed from the baseline state, then the total change in signal in each brain region were subtracted for AS1+28.5° C. and Vehicle+37.5° C. treated fish from AS1+37.5° C. treated fish. This was done to look for brain regions specifically activated in the presence of the noxious stimulus and AS1, reasoning that these areas would drive attraction to noxious stimuli.
pERK Immunolabeling. […]

[2] = 28.5 vs 37.5° C., dose-response 0-5 μM

SMILES: CC(C)c1ccc(C(=O)Nc2ccncc2)cc1 [AS1, 4-propan-2-yl-N-pyridin-4-ylbenzamide]
- zone-dependent locomotor activity (swimming velocity) (larval zebrafish; 28.5 vs 37.5° C. zones, compared to vehicle-treated larvae): inverted zone-dependent locomotor activity
- concentration that eliminates preference for either zone (larval zebrafish; [2]): 1.25 µM
- concentrations that induce preference for the 37.5° C. zone (larval zebrafish; [2]): > 2.5 µM
- preference in acute heat aversion (larval zebrafish; 28.5° vs 37.5° C., 5 μM AS1 (highest dose)): evoked strong preference for the nociceptive stimulus
- Reverses 28.5° C. Choice? (larval zebrafish; temperature preference 28.5° C. vs 37.5° C., larval zebrafish): Yes
- share of the top 25 most active regions that are subpallial/dopaminergic populations ([1]; AS1 + noxious heat (37.5° C.)): 64%
- brain regions recruited by AS1 alone ([1]; AS1-treated fish not exposed to noxious heat (28.5° C.)): primarily recruited neuron clusters within the mesencephalon and rhombencephalon
